From paper PMC10235067, “Increased renal elimination of endogenous and synthetic pyrimidine nucleosides in concentrative nucleoside transporter 1 deficient mice” (Nature Communications, 2023)
Several values for one entry are separate records, joined by “and”; a condition that tells them apart may be missing. Identical values can stand only once.

Test: Gemcitabine plasma pharmacokinetics in Slc28a1+/+ and Slc28a1-/- mice
[1] = dFdU in plasma, KO mice, iv gemcitabine 50mg/kg, per mouse
[2] = dFdU in plasma, WT mice, iv gemcitabine 50mg/kg, per mouse

Description: To collect blood, a 5 mm lancet was used to apply pressure to the submandibular vein and release blood flow. For retro-orbital collection, mice were anesthetized with 3% isoflurane in oxygen, and the blood was collected directly into heparinized capillary tubes by applying slight pressure to the medial canthus of the eye. Cardiac puncture was performed as the final collection method by first euthanizing the mice in a CO2 chamber and immediately performing posterior cardiac puncture by inserting a 27 G needle with a 1 ml syringe attachment into the heart. Once blood collection was completed, gentle pressure was applied to the blood collection area using gauze to stop the bleeding. Thirty microliters of blood was collected into heparinized capillary tubes at each time point, transferred into prelabeled 0.5 ml microcentrifuge tubes containing THU (10 µg/ml; final concentration), and immediately processed and snap-frozen following procedures outlined in the “Gemcitabine plasma pharmacokinetics” methods section.
Gemcitabine and dFdU plasma concentrations were measured using a modified version of our previously published UHPLC–MS/MS method for nucleosides[74] […] Noncompartmental pharmacokinetic parameters (Cmax, Tmax, AUC, CL, T1/2, etc.) were calculated using WinNonlin 6.2 software (Pharsight; Mountain View, CA). […] The Cmax and Tmax were obtained from the concentration-time curve. The AUC was calculated according to the linear trapezoidal rule up to the last time point with a measurable concentration of the analyte of interest. Significant differences between Slc28a1^+/+ and Slc28a1^−/− mouse pharmacokinetic parameters (p < 0.05) were evaluated with an unpaired two-sided Student’s t-test.
The resulting supernatant was evaporated to dryness in a SpeedVac, and the remaining residue was reconstituted in mobile phase A for subsequent analysis. […] Subsequent processing was identical to that for the plasma and urine samples.
Briefly, the analysis was performed on an Imtakt Schzero SM C18 column, 2.1 × 100 mm, 3.0 µm particle size. The eluents used consisted of mobile phase A consisting of 50 mM ammonium formate:50 mM ammonium hydroxide (9:1, v/v) (pH = 8.6) and mobile phase B consisting of 50 mM ammonium formate:50 mM ammonium hydroxide (9:1, v/v):ACN (80:20, v/v) (pH = 8.6). […] The injection volume was 10 μL, and the autosampler temperature was set at 4 °C throughout the analysis.
The Waters Triple Quadrupole Mass Spectrometer with an ESI source was operated in negative and positive ion mode at a spray voltage of 2.5 kV, capillary temperature of 150 °C, and vaporizer temperature of 250 °C. Compound optimization was performed manually using the MassLynx 4.1 Software AutoTune Wizard (Waters, Milford, MA) by infusion into the mass spectrometer using a T-connector. […] Analyze concentrations were determined and analyzed using MassLynx Mass Spectrometry Software (Waters; Milford, MA).

SMILES: O=c1ccn([C@@H]2O[C@H](CO)[C@@H](O)C2(F)F)c(=O)[nH]1 [dFdU, 2′,2′-difluorodeoxyuridine]
- AUC (Last) (Slc28a1-/- mice, plasma, single i.v. dFdC 50 mg/kg): 1453.8 ± 31.9 ng x min/mL
- AUCINF_D_obs [1]: 145.293 kg·ng·min/mL/mg and 247.451 kg·ng·min/mL/mg and 151.268 kg·ng·min/mL/mg
- AUCINF_D_pred [1]: 145.176 kg·ng·min/mL/mg and 248.596 kg·ng·min/mL/mg and 151.889 kg·ng·min/mL/mg
- AUCINF_obs [1]: 12372.5 ng·min/mL and 7563.4 ng·min/mL
- AUCINF_pred [1]: 12429.8 ng·min/mL and 7594.45 ng·min/mL
- AUC_%Back_Ext_obs [1]: 27.8053% and 16.048% and 18.9747%
- AUC_%Back_Ext_pred [1]: 27.8277% and 15.9741% and 18.8972%
- AUC_%Extrap_obs [1]: 3.511% and 11.2661% and 5.257%
- AUC_%Extrap_pred [1]: 3.433% and 11.6749% and 5.644%
- AUCall [1]: 7482.64 ng·min/mL and 12659.7 ng·min/mL and 8852.13 ng·min/mL and 5047.42 ng·min/mL and 7806.56 ng·min/mL and 6947.11 ng·min/mL
- AUClast [1]: 7009.6 ng·min/mL and 10978.6 ng·min/mL and 5995.89 ng·min/mL and 3337.67 ng·min/mL and 7165.79 ng·min/mL and 6415.86 ng·min/mL
- AUClast_D [1]: 140.192 kg·ng·min/mL/mg and 219.572 kg·ng·min/mL/mg and 119.918 kg·ng·min/mL/mg and 66.7534 kg·ng·min/mL/mg and 143.316 kg·ng·min/mL/mg and 128.317 kg·ng·min/mL/mg
- AUMCINF_obs [1]: 73315.1 min*min*ng/mL and 188787 min*min*ng/mL and 94928.9 min*min*ng/mL
- AUMCINF_pred [1]: 73092.7 min*min*ng/mL and 191216 min*min*ng/mL and 96149.2 min*min*ng/mL
- AUMC_%Extrap_obs [1]: 13.2491% and 31.3337% and 16.4642%
- AUMC_%Extrap_pred [1]: 12.9851% and 32.2062% and 17.5245%
- AUMClast [1]: 63601.5 min*min*ng/mL and 129633 min*min*ng/mL and 47032.5 min*min*ng/mL and 25446 min*min*ng/mL and 79299.6 min*min*ng/mL and 72737 min*min*ng/mL
- Cl_pred [1]: 413.291 L/h/kg and 241.36 L/h/kg and 395.026 L/h/kg
- Clast [1]: 31.5362 ng/mL and 112.074 ng/mL and 380.831 ng/mL and 227.966 ng/mL and 42.718 ng/mL and 35.4167 ng/mL
- Clast_pred [1]: 30.8142 ng/mL and 116.678 ng/mL and 46.0533 ng/mL
- Cmax [1]: 399.844 ng/mL and 516.311 ng/mL and 478.159 ng/mL and 230.143 ng/mL and 315.127 ng/mL and 303.44 ng/mL
- Cmax_D [1]: 7.997 kg·ng/mL/mg and 10.3262 kg·ng/mL/mg and 9.563 kg·ng/mL/mg and 4.603 kg·ng/mL/mg and 6.303 kg·ng/mL/mg and 6.069 kg·ng/mL/mg
- HL_Lambda_z [1]: 5.606 min and 8.621 min and 6.452 min
- Lambda_z [1]: 0.0804 min⁻¹ and 0.1074 min⁻¹
- MRTINF_obs [1]: 15.2585 min and 12.5511 min
- MRTINF_pred [1]: 15.3837 min and 12.6605 min
- MRTlast [1]: 11.8078 min and 7.844 min and 7.624 min and 11.0664 min and 11.3371 min
- Tlast [1]: 30 min and 15 min
- Tmax [1]: 5 min and 10 min and 15 min
- Vss_obs [1]: 69.4601 L/kg and 61.663 L/kg and 82.9724 L/kg
- Vss_pred [1]: 69.3609 L/kg and 61.8825 L/kg and 83.3534 L/kg
- Vz_obs [1]: 55.6606 L/kg and 50.262 L/kg and 61.5323 L/kg
- Vz_pred [1]: 55.7054 L/kg and 50.0305 L/kg and 61.2807 L/kg
- AUCINF_D_obs [2]: 809.741 kg·ng·min/mL/mg and 249.152 kg·ng·min/mL/mg and 172.396 kg·ng·min/mL/mg and 377.161 kg·ng·min/mL/mg
- AUCINF_D_pred [2]: 816.693 kg·ng·min/mL/mg and 238.149 kg·ng·min/mL/mg and 171.456 kg·ng·min/mL/mg and 377.935 kg·ng·min/mL/mg
- AUCINF_obs [2]: 40487.1 ng·min/mL and 12457.6 ng·min/mL and 8619.8 ng·min/mL and 18858.1 ng·min/mL
- AUCINF_pred [2]: 40834.7 ng·min/mL and 11907.4 ng·min/mL and 8572.82 ng·min/mL and 18896.7 ng·min/mL
- AUC_%Back_Ext_obs [2]: 5.421% and 15.2704% and 19.786% and 11.9089%
- AUC_%Back_Ext_pred [2]: 5.375% and 15.976% and 19.8944% and 11.8845%
- AUC_%Extrap_obs [2]: 84.3044% and 33.9106% and 11.4334% and 37.4722%
- AUC_%Extrap_pred [2]: 84.438% and 30.857% and 10.948% and 37.6002%
- AUCall [2]: 4075.38 ng·min/mL and 9255.63 ng·min/mL and 10796.8 ng·min/mL and 8847.25 ng·min/mL and 15444.5 ng·min/mL and 12682.2 ng·min/mL
- AUClast [2]: 2654.78 ng·min/mL and 6354.7 ng·min/mL and 8233.16 ng·min/mL and 7634.27 ng·min/mL and 11791.5 ng·min/mL and 11904.6 ng·min/mL
- AUClast_D [2]: 53.0957 kg·ng·min/mL/mg and 127.094 kg·ng·min/mL/mg and 164.663 kg·ng·min/mL/mg and 152.685 kg·ng·min/mL/mg and 235.831 kg·ng·min/mL/mg and 238.093 kg·ng·min/mL/mg
- AUMCINF_obs [2]: 3570423 min*min*ng/mL and 327900 min*min*ng/mL and 123838 min*min*ng/mL and 570014 min*min*ng/mL
- AUMCINF_pred [2]: 3606313 min*min*ng/mL and 297795 min*min*ng/mL and 121856 min*min*ng/mL and 572297 min*min*ng/mL
- AUMC_%Extrap_obs [2]: 98.6995% and 70.4945% and 33.5736% and 73.1636%
- AUMC_%Extrap_pred [2]: 98.7124% and 67.5118% and 32.4931% and 73.2706%
- AUMClast [2]: 21508.2 min*min*ng/mL and 46433.5 min*min*ng/mL and 96748.4 min*min*ng/mL and 82261.4 min*min*ng/mL and 152972 min*min*ng/mL and 128827 min*min*ng/mL
- Cl_pred [2]: 73.467 L/h/kg and 251.944 L/h/kg and 349.943 L/h/kg and 158.758 L/h/kg
- Clast [2]: 189.413 ng/mL and 386.792 ng/mL and 170.91 ng/mL and 80.8657 ng/mL and 243.534 ng/mL and 51.8385 ng/mL
- Clast_pred [2]: 390.731 ng/mL and 148.651 ng/mL and 77.0106 ng/mL and 244.867 ng/mL
- Cmax [2]: 214.033 ng/mL and 433.203 ng/mL and 507.425 ng/mL and 460.142 ng/mL and 479.909 ng/mL and 627.306 ng/mL
- Cmax_D [2]: 4.281 kg·ng/mL/mg and 8.664 kg·ng/mL/mg and 10.1485 kg·ng/mL/mg and 9.203 kg·ng/mL/mg and 9.598 kg·ng/mL/mg and 12.5461 kg·ng/mL/mg
- HL_Lambda_z [2]: 61.1667 min and 17.1328 min and 8.4476 min and 20.1128 min
- Lambda_z [2]: 0.01133 min⁻¹ and 0.04046 min⁻¹ and 0.08205 min⁻¹ and 0.03446 min⁻¹
- MRTINF_obs [2]: 88.1868 min and 26.3212 min and 14.3667 min and 30.2266 min
